The test has as its target T1, swine growth hormone secretagogue receptor (Type I, clone 7-3) (Sus scrofa, UniProt Q95254).
T1 construct: translation of the longest ORF encoded in clone 7-3 encodes a protein of 353 amino acids; expressed in transfected cells; host or cells: COS-7 (transient, Lipofectamine)
Put plainly: [35S]-Compound A binding to COS-7 cell membranes transfected with swine GHSR clone 7-3. On the procedure: Mammalian cells (COS-7) were transfected with GHSR expression plasmids using Lipofectamine (GIBCO-BRL; Hawley-Nelson, 1993, Focus 15:73). Transfections were performed in 60 mm dishes on 80% confluent cells (approximately 4×10^5 cells) with 8 μg of Lipofectamine and 32 μg of GHSR plasmid DNA.
Binding of [^35 S]-Compound A to swine pituitary membranes and crude membranes prepared from COS-7 cells transfected with GHSR expression plasmids was conducted. Crude cell membranes from COS-7 transfectants were prepared on ice, 48 hrs. post-transfection. Each 60 mm dish was washed twice with 3 ml of PBS, once with 1 ml homogenization buffer (50 mM Tris-HCl [pH 7.4], 5 mM MgCl2, 2.5 mM EDTA, 30 μg/ml bacitracin). 0.5 ml of homogenization buffer was added to each dish, cells were removed by scraping and then homogenized using a Polytron device (Brinkmann, Syosset, N.Y.; 3 bursts of 10 sec. at setting 4). The homogenate was then centrifuged for 20 min. at 11,000×g at 0° C. and the resulting crude membrane pellet (chiefly containing cell membranes and nuclei) was resuspended in homogenization buffer supplemented with 0.06% BSA (0.1 ml/60 mm dish) and kept on ice. Binding reactions were performed at 20° C. for 1 hr. in a total volume of 0.5 ml containing: 0.1 ml of membrane suspension, 10 μl of [^35 S]-Compound A (0.05 to 1 nM; specific activity approximately 900 Ci/mmol), 10 μl of competing drug and 380-390 μl of homogenization buffer. Bound radioligand was separated by rapid vacuum filtration (Brandel 48-well cell harvester) through GF/C filters pretreated for 1 hr. with 0.5% polyethylenimine. After application of the membrane suspension to the filter, the filters were washed 3 times with 3 ml each of ice cold 50 mM Tris-HCl [pH 7.4], 10 mM MgCl2, 2.5 mM EDTA and 0.015% Triton X-100, and the bound radioactivity on the filers was quantitated by scintillation counting. Specific binding (>90% of total) is defined as the difference between total binding and non-specific binding conducted in the presence of 50 nM unlabeled Compound A.

The source of these data is patent publication US6242199A, “Assays for growth hormone secretagogue receptors” (Merck & Co., Inc., priority 1998, dated 2001).

pKd: −log10 of the molar value.

What is called pKd is the Kd on a negative log10 scale, so that one unit is a factor of ten.

T1 sequence (Q95254 14-366): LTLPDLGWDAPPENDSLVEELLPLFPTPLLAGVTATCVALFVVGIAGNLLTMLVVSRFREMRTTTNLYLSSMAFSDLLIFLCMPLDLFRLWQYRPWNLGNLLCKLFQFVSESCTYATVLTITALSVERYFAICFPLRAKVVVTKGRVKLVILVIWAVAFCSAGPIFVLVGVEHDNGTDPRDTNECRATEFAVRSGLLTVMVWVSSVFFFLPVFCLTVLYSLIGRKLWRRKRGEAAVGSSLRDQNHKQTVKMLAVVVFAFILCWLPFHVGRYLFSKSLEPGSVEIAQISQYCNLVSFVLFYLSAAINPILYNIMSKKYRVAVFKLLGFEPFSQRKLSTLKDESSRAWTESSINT

For the molecule `CC(C)(N)C(=O)N[C@H](COCc1ccccc1)C(=O)N1CCC2(CC1)CN(S(C)(=O)=O)c1ccccc12` [Compound A, (N-[1(R)-[1,2-dihydro-1-methanesulfonlylspiro[3H-indole-3,4'-piperidin]-1'-yl)carbonyl]-2-(phenylmethyloxy)-ethyl]-2-amino-2-methyl-propanamide], for the setting “1 h, 50 nM unlabeled Compound A, read-out: specific binding displaced by unlabeled Compound A”, the inhibition at 0.05 µM is more than 90%. Moreover, the “saturable binding, Bmax” value (clone 7-3 expressed transiently in COS-7 cells) is ~ 80 fmol/mg protein. Besides, where the note is “clone 7-3 expressed transiently in COS-7 cells, read-out: high affinity binding, KD”, the pKd is approximately 9.70. Moreover, for the setting “nonspecific in presence of 50 nM unlabeled Compound A”, the “specific binding of total” value is more than 90%.
